Test results: PubChem BioAssay AID2454 (Broad Institute, 2010)
pEC50: −log10 of the molar value.

System: H4 cells, SNCA 5'UTR luciferase reporter translation
Assay: alpha-synuclein stem-loop translation blockers – luminescence, H4 neuroglioblastoma cells, dose confirmation, confirmation (AID 2454)

COc1ccc(O)c2c(=O)c3c(OC)cc4c(c3oc12)C1C=COC1O4 (stereo unspecified)
pEC50: 6.24
